According to patent US11583507B2, “Direct AMPK activator compounds” (SOCIETE DES PRODUITS NESTLE S.A., priority 2018, dated 2023):

Experiments:
[1] = target: T1, AMPKα2β1γ1 (211) (Homo sapiens, UniProt P54619+P54646+Q9Y478); assay: AMPK in vitro activity assay (HTRF-KinEASE), phosphorylated bacterially-expressed complex; assay type: biochemical; conditions: fold activation vs complex without compound; 30 mins incubation
T1 construct: His; made in house; host or cells: bacteria
Protocol: (§1) Lusianthridin (CAS 87530-30-1) was isolated from Thunia alba fruit. It was sourced from Analyticon (NP-012362). The plant was purchased through Analyticon's biomaterial supplier in 2003. The country of origin is Nepal. The AMPK heterotrimers were expressed in bacteria and purified through the His-α subunit by nickel purification. AMPK complexes were purified through gel filtration and phosphorylated by incubation with CaMKKβ, and further purified with a final gel filtration purification step. Phosphorylated purified AMPK was incubated with varying concentrations of ligand for 30 mins using substrate and reagents from the HTRF-KinEASE Cisbio assay kit (STK S1 Kit). Phosphorylation of the substrate was measured by incubating with donor and acceptor antibodies for 2 h at room temperature as per the manufacturer's protocol (and Coulerie et al., (2016) PMID: 27792327) and phosphorylated peptide detected by performing HTRF. The 665 nm/620 nm ratio was determined and the results are plotted as fold activation compared to the respective AMPK complex without any compound.

[2] = target: T2, AMPK α2β2γ1 (221) (Homo sapiens, UniProt O43741+P54619+P54646); assay: AMPK in vitro activity assay (HTRF-KinEASE), β2-containing complex; assay type: biochemical; conditions: fold activation vs complex without compound
T2 construct: His; made in house; host or cells: bacteria
T2 sequence (P54646 whole entry): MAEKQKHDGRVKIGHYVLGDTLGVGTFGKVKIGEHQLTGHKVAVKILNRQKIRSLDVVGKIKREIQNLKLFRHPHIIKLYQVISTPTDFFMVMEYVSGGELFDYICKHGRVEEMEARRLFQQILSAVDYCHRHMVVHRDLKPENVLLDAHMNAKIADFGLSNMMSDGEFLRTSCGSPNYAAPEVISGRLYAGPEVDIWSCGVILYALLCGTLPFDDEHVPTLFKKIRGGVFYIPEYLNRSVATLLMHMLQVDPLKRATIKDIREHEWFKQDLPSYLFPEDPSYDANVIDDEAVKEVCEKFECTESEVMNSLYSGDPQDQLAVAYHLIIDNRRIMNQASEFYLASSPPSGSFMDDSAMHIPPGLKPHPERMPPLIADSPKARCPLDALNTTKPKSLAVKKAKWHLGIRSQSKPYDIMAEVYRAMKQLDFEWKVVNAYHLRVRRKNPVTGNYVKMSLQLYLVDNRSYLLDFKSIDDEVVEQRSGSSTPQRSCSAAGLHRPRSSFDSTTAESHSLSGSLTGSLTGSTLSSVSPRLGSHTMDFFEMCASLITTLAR
T2 sequence (O43741 whole entry): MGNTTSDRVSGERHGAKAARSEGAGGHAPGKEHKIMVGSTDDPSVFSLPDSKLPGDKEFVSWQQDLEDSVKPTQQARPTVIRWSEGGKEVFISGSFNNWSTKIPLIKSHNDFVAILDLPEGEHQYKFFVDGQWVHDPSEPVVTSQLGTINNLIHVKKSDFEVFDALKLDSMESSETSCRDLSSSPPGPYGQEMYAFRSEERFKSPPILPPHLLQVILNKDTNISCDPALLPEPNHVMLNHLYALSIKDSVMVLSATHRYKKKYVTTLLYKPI
T2 sequence (P54619 whole entry): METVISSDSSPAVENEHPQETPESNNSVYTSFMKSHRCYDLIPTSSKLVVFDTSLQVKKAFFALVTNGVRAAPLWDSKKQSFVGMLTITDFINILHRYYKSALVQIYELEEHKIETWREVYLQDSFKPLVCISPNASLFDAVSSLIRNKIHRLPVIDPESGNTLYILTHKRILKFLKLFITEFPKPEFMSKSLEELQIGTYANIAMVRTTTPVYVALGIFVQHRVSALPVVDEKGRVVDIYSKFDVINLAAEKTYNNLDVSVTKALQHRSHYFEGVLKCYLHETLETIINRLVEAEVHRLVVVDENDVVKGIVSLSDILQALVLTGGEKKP
Protocol: as §1

[3] = test system: AMPK α2β1γ1 ΔCBM mutant (211 ΔCBM); assay: AMPK in vitro activity assay (HTRF-KinEASE), ΔCBM mutant; assay type: biochemical; conditions: carbohydrate-binding module deleted
Protocol: as §1

[4] = target: T3, AMPK α2β1γ1 S108A mutant (211 S108A) (Homo sapiens, UniProt P54619+P54646+Q9Y478, S108A); assay: AMPK in vitro activity assay (HTRF-KinEASE), β1 S108A mutant; assay type: biochemical
T3 construct: His; made in house; host or cells: bacteria
T3 sequence (P54646 whole entry): as the sequence (P54646 whole entry) above
T3 sequence (Q9Y478 whole entry S108A): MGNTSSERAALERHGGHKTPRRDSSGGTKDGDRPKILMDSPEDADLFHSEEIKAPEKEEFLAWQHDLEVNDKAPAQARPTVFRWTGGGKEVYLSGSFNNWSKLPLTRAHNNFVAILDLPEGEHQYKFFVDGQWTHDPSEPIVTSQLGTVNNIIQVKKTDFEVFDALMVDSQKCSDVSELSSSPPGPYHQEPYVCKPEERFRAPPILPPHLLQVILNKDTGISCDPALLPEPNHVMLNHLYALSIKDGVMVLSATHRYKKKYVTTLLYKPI
T3 sequence (P54619 whole entry): as the sequence (P54619 whole entry) above
Protocol: as §1

[5] = test system: AMPK substrate, acetyl-CoA carboxylase (ACC); assay: pACC HTRF assay in U2OS Flp-In T-REx cells; assay type: cell-based; conditions: 1 h, varying concentrations, dose-dependent
Protocol: U2OS Flp-In T-REx cells were seeded at 100 K in a 96-well plate and left overnight at 37 C in DMEM GlutaMAX (Thermo Fisher Scientific) supplemented with 10% (vol/vol) FBS and 100 U/ml penicillin G, and 100 μg/ml streptomycin. Cells were treated for 1 h with varying concentrations of Lusianthridin in media lacking FBS and then cells were lysed in 50 μl of Cisbio lysis buffer #1 supplemented with blocking solution as per the manufacturer's protocol (Cisbio). Cells were lysed for 30 mins at room temperature before 16 μl of lysate was incubated with 4 μl of the HTRF antibodies (1:40 dilution of the acceptor and donor (p)ACC antibodies, as per the manufacturers protocol). Lysates were incubated overnight with the antibodies before 665 nm/620 nm ratio was determined using a MolecularDevices i3 plate reader (with a HTRF cartridge add-on). For western blot analysis, SDS-sample buffer was added to the remainder of the lysate, denatured at 95 C and then subjected to western blot analysis with phospho-specific and total ACC antibodies (Cell Signalling). Bands were visualized by incubating with Li-Cor secondary antibody and scanned on a Li-Cor Odyssey machine.

[6] = test system: C2C12 AMPKα1α2+/+ cells; assay: Glucose uptake (3H-2-deoxyglucose) in differentiated C2C12 AMPKα1α2+/+ cells; assay type: cell-based, murine
Text: C2C12 AMPK α1α2 double knockout cell lines were generated by transient transfection of wild type cells with plasmids containing Cas9 enzyme linked to green fluorescent protein expression and Cas9 guide RNA sequences targeting the murine AMPK α1 subunit (sc-430618, SantaCruz) and the murine AMPK α2 subunit (sc-430803, SantaCruz). Cells positive for green fluorescent protein expression were single cell sorted by flow cytometry into 96-well plates containing growth medium and analysed for loss of AMPK signaling following expansion of the clones.
Differentiated C2C12 AMPKα1α2+/+ and AMPKα1α2−/− cells were treated with either vehicle (0.2% DMSO), 30 μM or 100 μM Lusianthridin for 1 h at 37° C. […] Finally, differentiated C2C12 AMPKα1α2+/+ and AMPKα1α2−/− cells were treated with either vehicle (0.2% DMSO) or 100 μM Lusianthridin in the presence or absence of 15 nM Wortmanin for 1 h at 37° C. For the Wortmanin experiments, differentiated C2C12 cells were pre-incubated with DMSO or Wortmanin for 1 h prior to treatment.
Glucose uptake was determined by monitoring the uptake of 3H-2-deoxyglucose into cells. C2C12 AMPKα1α2+/+ and AMPKα1α2−/− cells were maintained in DMEM GlutaMAX supplemented with 20% (vol/vol) FBS and 100 U/ml penicillin G, and 100 μg/ml streptomycin. […] Cells were lysed and the quantity of ^3H determined in these samples using a scintillation counter.

[7] = test system: AMPK β1 WT (phosphorylation of ACC); assay: pACC (HTRF and western blot) in AMPKβ1/β2 double knockout U2-OS Flp-In T-Rex cells stably expressing β1 WT; assay type: cell-based, human
Text: AMPKβ1/β2 double knockout U2-OS Flp-In™ T-Rex™ cell lines were generated by Horizon Discovery (Cambridge, UK). Cells were genotyped and analysed by western blotting to confirm that there was a complete knockout of AMPKβ1/β2. We took these AMPKβ1/β2 double knockout cells, and re-introduced the expression of human β1 wild-type (WT) or a β1 Serine 108 to alanine mutation (S108A). This was achieved using the Flp-In™ system (Invitrogen) present in this cell line and stable cells expressing β1 WT or a β1 S108A mutant were generated according to the manufacturers' protocols. Re-expression of the β1 subunit was confirmed by western blot analysis.
Cells stably expressing β1 WT or a β1 S108A mutant were treated with varying concentrations of Lusianthridin and subjected to the pACC HTRF (Cisbio) assay or western blot analysis to determine phosphorylation of the AMPK substrate, ACC, in cells lysates. Western blots were quantified using the LI-COR odyssey system and shown as the ratio of the antibody signal from pACC divided by total ACC.

T1 sequence (P54646 whole entry): as the sequence (P54646 whole entry) above
T1 sequence (Q9Y478 whole entry): as the sequence (Q9Y478 whole entry S108A) above, with A108S counted along it
T1 sequence (P54619 whole entry): as the sequence (P54619 whole entry) above

activation of bacterially-expressed AMPKα2β1γ1 complexes [1]: Activates
activation of β2-containing AMPK complexes (α2β2γ1) [2]: does not activate
activation of AMPK complexes with the β1 S108A mutation [4]: does not activate
SMILES: COc1cc(O)c2c(c1)CCc1cc(O)ccc1-2 [Lusianthridin, 7-Methoxy-9,10-dihydrophenanthrene-2,5-diol]
activation of α2β1γ1 ΔCBM mutant [3]: does not activate
phosphorylation of the AMPK substrate ACC (pACC HTRF) [5]: increases
glucose uptake (fold change relative to control) ([6]; C2C12 AMPKα1α2+/+, 30 or 100 μM Lusianthridin, 300 nM Insulin, 1 h at 37° C): increase in glucose uptake
effect of Wortmanin on stimulated glucose uptake ([6]; in the presence of 15 nM Wortmanin (1 h pre-incubation), 100 μM Lusianthridin or 300 nM Insulin, 1 h): no effect
pACC (HTRF and western blot, pACC/total ACC) ([7]; FIGS. 19 and 20): dose-dependently increase pACC
pACC (HTRF assay) ([7]; varying concentrations, 30 mins at 37 C): capable of activating
